Target: T1, bovine serum albumin (BSA) (Bos taurus, UniProt P02769)
T1 construct: gene ALB; BSA fraction V (Sigma), 583 amino acid residues
Experiment: intrinsic fluorescence quenching titration (static; Kb at […] K, pH […], n = […]), supported by UV-vis, CD and FRET
Type: binding
Conditions: read-out: Kb (10^6 M^-1) (converted)

T1 sequence (P02769 25-607): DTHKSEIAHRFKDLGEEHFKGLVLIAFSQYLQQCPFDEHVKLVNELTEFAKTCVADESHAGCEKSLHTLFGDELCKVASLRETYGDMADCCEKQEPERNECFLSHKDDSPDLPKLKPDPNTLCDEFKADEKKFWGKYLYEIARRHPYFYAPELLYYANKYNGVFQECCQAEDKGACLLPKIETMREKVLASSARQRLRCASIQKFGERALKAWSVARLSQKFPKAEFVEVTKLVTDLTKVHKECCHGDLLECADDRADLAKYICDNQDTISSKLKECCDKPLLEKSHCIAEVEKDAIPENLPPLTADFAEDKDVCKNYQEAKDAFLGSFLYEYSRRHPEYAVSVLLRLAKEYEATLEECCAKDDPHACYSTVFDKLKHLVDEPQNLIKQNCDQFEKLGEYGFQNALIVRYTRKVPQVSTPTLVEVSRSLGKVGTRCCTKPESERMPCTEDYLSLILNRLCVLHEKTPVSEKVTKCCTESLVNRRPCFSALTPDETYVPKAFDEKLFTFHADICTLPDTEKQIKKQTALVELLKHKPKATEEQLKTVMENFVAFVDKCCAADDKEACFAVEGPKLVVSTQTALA

COc1ccc(-c2cc(=O)c3c(O)c(OC)c(OC)cc3o2)cc1O [eupatorin]
Kd: 813 nM

Source: publication PMC3742238, “Characterization of the Interaction between Eupatorin and Bovine Serum Albumin by Spectroscopic and Molecular Modeling Methods” (International Journal of Molecular Sciences, 2013)
